Here are results for ten compounds from ChEMBL document CHEMBL1138296, “Synthesis and biological evaluation of alpha-halogenated bisphosphonate and phosphonocarboxylate analogues of risedronate” (J Med Chem, 2007).

Molecules are shown by their SMILES. Active and inactive are the calls of the source. The rule behind the calls is not given here.

Test [1] in a line: Bone mineral affinity on hydroxyaptite assessed as retention time by chromatography. Format: functional.
In test [2] the target is T1, Farnesyl pyrophosphate synthase (Homo sapiens, UniProt P14324).
T1 sequence (P14324 whole entry): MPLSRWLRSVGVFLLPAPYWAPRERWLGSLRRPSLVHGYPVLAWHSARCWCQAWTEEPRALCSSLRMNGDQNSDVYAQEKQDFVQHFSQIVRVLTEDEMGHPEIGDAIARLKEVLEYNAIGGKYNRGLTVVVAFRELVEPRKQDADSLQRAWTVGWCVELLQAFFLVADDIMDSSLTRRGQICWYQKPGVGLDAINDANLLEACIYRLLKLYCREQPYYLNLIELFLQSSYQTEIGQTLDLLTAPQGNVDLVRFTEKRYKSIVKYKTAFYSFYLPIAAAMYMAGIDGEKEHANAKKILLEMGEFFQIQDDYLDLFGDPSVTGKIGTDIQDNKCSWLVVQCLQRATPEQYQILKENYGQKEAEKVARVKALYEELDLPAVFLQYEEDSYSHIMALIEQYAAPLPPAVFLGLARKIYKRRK
Kind of test: Inhibition of human cloned FPPS expressed in Escherichia col […].

A short description of test [3]: Reduction of viability of mouse […] cells after 48 hrs. It counts as cell-based.
Test [4] is described as follows: Inhibition of RGGT. Also on record: species or system Homo sapiens.
Test [5] relates to J744. The test is described as follows: Inhibition of RGGT mediated Rab11 prenylation in […] cells. The note with it: Mus musculus. Format: cell-based.
In test [6] the test system is J744. The test is described as follows: Inhibition of RGGT mediated Rap1A prenylation in […] cells. It counts as cell-based. The note with it: Mus musculus.

What is called IC50 is the point on the concentration scale where inhibition reaches its midpoint. The low end stands for higher potency, the high end for lower potency. Turning to `O=C(O)C(F)(Cc1cccnc1)P(=O)(O)O` (stereo not drawn), in test [1], the result was inactive. Also, the IC50 is more than 600 µM in test [2], 1.8 µM in test [3] and 16.3 µM in test [4]. Also, in the test with J744 [5], the MED stood at 31 µM.
Take `O=C(O)C(Cl)(Cc1cccnc1)P(=O)(O)O` (stereo not drawn): in test [1], the result was inactive. In addition, the IC50 in test [2] was more than 600 µM; in test [3] it was 5 µM; in test [4] it was 16.4 µM. This compound came in with an MED in the test on J744 [5] of 125 µM.
Consider `O=P(O)(O)C(Cc1cccnc1)P(=O)(O)O`, for which, in test [1], the TIME was found to be 0.0972 h. Further, the IC50 in test [2] was determined as 0.0342 µM; in test [3], 212 µM. Also, the MED with J744 [6] was 50 µM.
As for `O=C(O)C(Cc1cccnc1)P(=O)(O)O` (stereo not drawn), the result in test [1] was inactive. Also, the IC50 in test [3] was 2.6 µM; in test [4], 35.3 µM. In the test with J744 [5], this compound yielded an MED of 62 µM.
As to `O=P(O)(O)C(Cl)(Cc1cccnc1)P(=O)(O)O`, the TIME in test [1] came out at 0.101 h. Besides, the IC50 in test [2] was 0.0946 µM; in test [3], 679 µM. In the test on J744 [6], this compound had an MED of 400 µM.
In the case of `O=C(O)C(Br)(Cc1cccnc1)P(=O)(O)O` (stereo not drawn), the result in test [1] was inactive. Moreover, the figures for the IC50 in test [2], in test [3] and in test [4] were more than 60 µM, 5.5 µM and 17.7 µM, respectively. In the test with J744 [5], this compound yielded an MED of 125 µM.
Take `O=P(O)(O)C(O)(Cc1cccnc1)P(=O)(O)O` [RISEDRONIC ACID]: the TIME in test [1] turned out to be 0.166 h. In test [3], the half-inhibitory concentration (IC50) worked out at 31 µM. The compound further gave an MED with J744 [6] of 12 µM.
Take `O=P(O)(O)C(Br)(Cc1cccnc1)P(=O)(O)O`: the TIME in test [1] was determined as 0.0955 h. In addition, the IC50 in test [2] was 0.34 µM; in test [3] it was 673 µM. This compound had an MED in the test on J744 [6] of 400 µM.
Turning to `O=C(O)[C@@](O)(Cc1cccnc1)P(=O)(O)O`, the TIME in test [1] stood at 0.0767 h. Further, the figures for the IC50 in test [2], in test [3] and in test [4] were 254 µM, 2.3 µM and 24.1 µM, respectively. Further, the MED in the test on J744 [5] turned out to be 62 µM.
As to `O=P(O)(O)C(F)(Cc1cccnc1)P(=O)(O)O`, the TIME in test [1] was determined as 0.0988 h. The IC50 in test [2] turned out to be 0.0164 µM; in test [3], 140 µM. In addition, the MED in the test on J744 [6] was found to be 100 µM.
